These results are taken from US5808062A, “Pyrone derivatives as protease inhibitors and antiviral agents” (Warner-Lambert Company, priority 1994, dated 1998).

Experiment [1] relates to Streptococcus pyogenes C203. As to the kind of experiment: Antibacterial activity, microtitration dilution method. The experiment is classed as cell-based. The conditions noted are these: read-out: Antibacterial Activity, minimum inhibitory concentration (MIC). The source says: (§1) The compounds of the invention display antibacterial activity when tested by the microtitration dilution method as described in Heifetz, et al., Antimicr. Agents. & Chemoth. 6:124 (1974) which is incorporated herein by reference.
(§2) By use of the above referenced method, the following minimum inhibitory concentration values (MICs in μg/mL) were obtained for representative compounds of the invention vs. clinically relevant gram positive pathogens which have become highly resistant to conventional therapy in recent years.

In experiment [2] the test system is Staphylococcus aureus H228. Described as above. In kind it is cell-based. The conditions noted are these: read-out: Antibacterial Activity, minimum inhibitory concentration (MIC).
Description: as §1, §2

In experiment [3] the test system is Enterococcus foecalis MGH2. The experiment is described as above. In kind it is cell-based. The conditions noted are these: read-out: Antibacterial Activity, minimum inhibitory concentration (MIC).
Description: as §1, §2

In experiment [4] the test system is Streptococcus pneumonia 5V-1. The description is as above. In kind it is cell-based. The following applies: Streptococcus pneumoniae, 5V1, read-out: Antibacterial Activity, minimum inhibitory concentration (MIC).
Description: as §1, §2

Experiment [5] concerns Staphylococcus aureus UC-76. The description is as above. In kind it is cell-based. The conditions noted are these: UC76, read-out: Antibacterial Activity, minimum inhibitory concentration (MIC).
Description: as §1, §2

The next experiment has as its target T1, HIV-I Protease (Human immunodeficiency virus type 1 group M subtype B, UniProt P04585).
T1 construct: HIV-I Protease: The enzyme is obtained from Bachem Bioscience Inc; purchased Bachem Bioscience Inc
The experiment is described as follows: HIV Protease Inhibition (undecapeptide substrate hydrolysis, HPLC). The conditions noted are these: averaged; substrate 40 μM, 37° C., pH 4.7 DTT buffer, 5 minutes; read-out: 50% Inhibition Concentration (Averaged). In kind it is biochemical. On the procedure: DTT Buffer: 1.0 mM dithiothreitol (DTT) was prepared fresh daily in 0.1% polyethylene glycol (mw 8000) 80 mM NaOAc, 160 mM NaCl, 1.0 mM EDTA, and brought to pH 4.7 with HCl.
HIV-I Protease: The enzyme is obtained from Bachem Bioscience Inc. The undiluted enzyme is thawed from -80° C. and diluted 50-fold with DTT buffer. The solution is always kept at 0° C. on ice water and used in the experiment within 20 minutes after thawing.
Enzyme Substrate: Substrate III from Bachem Bioscience Inc. is the undecapeptide H-His-Lys-Ala-Arg-Val-Leu-p-Nitrophenylalanine-Glu-Ala-Norleucine-Ser-NH2 (>97% purity). A 200 μM stock solution in DTT buffer is prepared and stored on ice. Substrate solution is prepared fresh daily.
Test Compound: 10 mM inhibitor (I) in dimethyl sulfoxide (DMSO) is diluted to 200 μM with DTT buffer. From the 200 μM stock solution is made a 10 μM stock solution with 2% DMSO in DTT buffer. The two inhibitor solutions are used to make final [I]=100, 50, 20, 10, 5, 2, 1, 0.5 and 0 μM with 2% DMSO in DTT buffer in each reaction well (total inhibitor volume of 50 μl).
To each reaction well is added 20 μl of substrate (final concentration of 40 μM), 50 μl of inhibitor (at a concentration such that final dilution will produce the test concentration) and 20 μl of DTT buffer. The reaction plate (96 wells) is incubated at 37° C. for at least 5 minutes.
10 μl of the diluted protease is added to the reaction well while the reaction plate is shaking. Once shaken for 10 seconds, the plate is returned to the heating block at 37° C. (Final reaction volume=100 μl.)
The reaction is incubated for 5 minutes at 37° C. The reaction is stopped by placing the reaction plate on the shaker and adding 20 μl of 10% trifluoroacetic acid (TFA) and shaking for 10 seconds. The amount of proteolysis is then determined by separation of noncleaved substrate and two cleaved products with reverse-phase HPLC, while measuring absorbance at 220 nm to determine the relative peak areas of the three components. The relative peak areas are used to calculate % conversion to product as a function of inhibitor concentration. The data is plotted as % Control (the ratio of % conversion in the presence and absence of inhibitor×100) versus inhibitor concentration and fit with the equation Y=100/1+(X/IC50)^A, where IC50 is the inhibitor concentration at 50% inhibition and A is the slope of the inhibition curve.

A further experiment deals with HIV. The conditions noted are these: R. Nagorny et al., AIDS 1993; cited from earlier work.

The structures appear in SMILES notation. ≈ marks a conversion by molar mass, not a printed value.

Take `O=c1oc(-c2ccccc2Cl)cc(O)c1SCc1ccccc1` [Example 2, 6-(2-chlorophenyl)-4-hydroxy-3-[(phenylmethyl)thio]-2H-pyran-2-one]: the MIC was determined as 12.5 µg/mL (≈ 36.3 µM) in experiment [1]; 12.5 µg/mL (≈ 36.3 µM) in experiment [2]; 25 µg/mL (≈ 72.5 µM) in experiment [3]; 12.5 µg/mL (≈ 36.3 µM) in experiment [4]; 12.5 µg/mL (≈ 36.3 µM) in experiment [5].

As to `O=c1oc(-c2ccc(OCc3ccccc3)cc2)cc(O)c1SCCc1ccccc1` [Example 29, 4-Hydroxy-3-[(2-phenylethyl)thio]-6-[4-(phenylmethoxy)phenyl]-2H-pyran-2-one], the MIC came to 25 µg/mL (≈ 58.1 µM) in experiment [1]; 25 µg/mL (≈ 58.1 µM) in experiment [2]; 50 µg/mL (≈ 116 µM) in experiment [3]; 25 µg/mL (≈ 58.1 µM) in experiment [4]; 25 µg/mL (≈ 58.1 µM) in experiment [5].

`CCC(=O)Oc1cc(-c2ccccc2)oc(=O)c1SCc1ccccc1` [Example 49, 2-Oxo-6-phenyl-3-[ (phenylmethyl)thio]-2H-pyran-4-ylpropanoic acid ester]: on HIV-I Protease, the IC50 came out at 1600 nM.

As to `O=c1oc(-c2ccc(OCCO)cc2)cc(O)c1SCCc1ccccc1` [Example 160, 4-Hydroxy-6-[4-(2-hydroxyethoxy)phenyl]-3-[(2-phenylethyl)thio]-2H-pyran-2-one], the IC50 on HIV-I Protease turned out to be 360 nM.

With `CC(C)c1ccccc1Sc1c(O)cc(-c2cccc(-c3ccccc3)c2)oc1=O` [Example 167, 6-(1,1'-Biphen-3-yl)-4-hydroxy-3-[(2-isopropylphenyl)thio]-2H-pyran-2-one], the MIC in experiment [1] was determined as 6.2 µg/mL (≈ 15 µM); in experiment [2], 6.2 µg/mL (≈ 15 µM); in experiment [3] it was 12.5 µg/mL (≈ 30.2 µM); in experiment [4], 6.2 µg/mL (≈ 15 µM); in experiment [5] it was 6.2 µg/mL (≈ 15 µM).

As for `Cc1cc(C)cc(-c2cc(O)c(Sc3ccccc3C(C)C)c(=O)o2)c1` [Example 169, 6-(3,5-Dimethylphenyl)-4-hydroxy-3-[(2-isopropylphenyl)-thio]-2H-pyran-2-one], the IC50 on HIV-I Protease worked out at 15 nM.

Consider `CC(C)c1ccccc1Sc1c(O)cc(-c2ccc(OCc3cccnc3)cc2)oc1=O` [Example 172, 4-Hydroxy-3-[(2-isopropylphenyl)thio]-6-[4-(pyridin-3-ylmethoxy)phenyl]-2H-pyran-2-one], for which the MIC in experiment [1] amounted to 50 µg/mL (≈ 112 µM); in experiment [2] it was 50 µg/mL (≈ 112 µM); in experiment [3], 100 µg/mL (≈ 224 µM); in experiment [4], 50 µg/mL (≈ 112 µM); in experiment [5], 50 µg/mL (≈ 112 µM).

In the case of `CC(C)c1ccccc1Sc1c(O)cc(-c2cc(Cl)cc(Cl)c2)oc1=O` [Example 193, 6-(3,5-Dichlorophenyl)-4-hydroxy-3-[(2-isopropylphenyl)thio]-2H-pyran-2-one], the IC50 at HIV-I Protease was 26 nM.

Take `CC(=O)CC(c1ccccc1)c1c(O)c2ccccc2oc1=O` (stereo not drawn) [Warfarin, 3-(α-acetonylbenzyl)-4-hydroxycoumarin]: in the experiment on HIV, the “inhibition of HIV infection (in words)” value is “inhibiting cell-free and cell-mediated HIV infection”.
